Biological target: cytochrome bo3 (cbo3), ubiquinol oxidase (Escherichia coli, UniProt P0ABI8)
Assay type: biochemical

Chain of cytochrome bo3 (cbo3), ubiquinol oxidase (P0ABI8 whole entry): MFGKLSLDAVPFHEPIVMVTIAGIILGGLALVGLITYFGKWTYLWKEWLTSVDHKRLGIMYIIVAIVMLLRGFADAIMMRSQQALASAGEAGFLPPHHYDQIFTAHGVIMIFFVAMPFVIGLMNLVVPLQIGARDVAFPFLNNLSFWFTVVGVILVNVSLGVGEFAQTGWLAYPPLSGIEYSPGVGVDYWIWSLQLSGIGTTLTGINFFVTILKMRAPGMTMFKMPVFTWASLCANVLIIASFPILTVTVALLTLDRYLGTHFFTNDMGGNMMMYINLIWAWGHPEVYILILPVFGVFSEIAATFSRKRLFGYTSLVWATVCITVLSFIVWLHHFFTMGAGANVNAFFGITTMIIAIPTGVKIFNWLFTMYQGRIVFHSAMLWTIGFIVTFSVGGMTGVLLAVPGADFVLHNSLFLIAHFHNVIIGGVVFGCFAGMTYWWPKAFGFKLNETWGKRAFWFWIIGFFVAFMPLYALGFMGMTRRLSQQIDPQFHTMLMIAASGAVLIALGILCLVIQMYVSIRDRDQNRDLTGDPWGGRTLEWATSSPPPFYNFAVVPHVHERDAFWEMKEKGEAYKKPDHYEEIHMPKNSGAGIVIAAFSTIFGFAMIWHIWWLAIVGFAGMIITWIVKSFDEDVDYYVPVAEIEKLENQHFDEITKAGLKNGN
Chain of cytochrome bo3 (cbo3), ubiquinol oxidase (P0ABJ1 25-315 partner): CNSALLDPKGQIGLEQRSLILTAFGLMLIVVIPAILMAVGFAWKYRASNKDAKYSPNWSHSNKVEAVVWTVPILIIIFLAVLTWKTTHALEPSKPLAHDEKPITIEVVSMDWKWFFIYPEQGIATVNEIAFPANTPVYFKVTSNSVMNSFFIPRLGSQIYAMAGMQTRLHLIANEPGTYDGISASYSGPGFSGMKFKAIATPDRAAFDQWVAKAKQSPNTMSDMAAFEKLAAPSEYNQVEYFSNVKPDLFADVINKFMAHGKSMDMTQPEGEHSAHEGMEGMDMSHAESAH
Chain of cytochrome bo3 (cbo3), ubiquinol oxidase (P0ABJ3 whole entry partner): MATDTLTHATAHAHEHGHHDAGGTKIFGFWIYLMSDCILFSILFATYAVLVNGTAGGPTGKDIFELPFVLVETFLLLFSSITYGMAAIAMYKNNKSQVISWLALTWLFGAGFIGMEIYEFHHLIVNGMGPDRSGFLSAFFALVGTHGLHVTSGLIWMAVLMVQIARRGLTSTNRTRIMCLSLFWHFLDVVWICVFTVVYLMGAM
Chain of cytochrome bo3 (cbo3), ubiquinol oxidase (P0ABJ6 whole entry partner): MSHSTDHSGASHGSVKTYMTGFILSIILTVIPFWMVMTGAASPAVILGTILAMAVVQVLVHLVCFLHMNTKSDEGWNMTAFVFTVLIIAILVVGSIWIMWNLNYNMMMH

CCCCCCCc1cc(O)c2ccccc2[n+]1[O-] [2-n-Heptyl-4-hydroxyquinoline N-oxide]
IC50: 28.7 ± 2.1 µM

From article PMC3827738 (Biochimica et biophysica acta, 2010)
